Here are results for four compounds from publication PMC9115112, “A2B adenosine receptor antagonists rescue lymphocyte activity in adenosine-producing patient-derived cancer models” (Journal for Immunotherapy of Cancer, 2022).

The structures appear in SMILES notation.

Assay [1] relates to healthy donor T cells (PBMCs) and NK cells. Briefly: CFSE proliferation assay with exogenous adenosine. The note with it: exogenous adenosine 0.1 mM, antagonist 12 µM, 3 days (T) and 6 days (NK). The assay is classed as cell-based, human. As for the experimental part: Freshly isolated PBMCs and NK cells were stained with 5 µM FITC-conjugated carboxyfluorescein succinimidyl ester (CFSE, BioLegend) in phosphate-buffered saline (PBS) (Life Technologies) at room temperature for 5 min. CSFE stained cells were washed with flow cytometer buffer three times. CSFE-labeled healthy PBMCs and NK cells were cultured in 96-well plates with X-VIVO20% and 1% PS for 3 and 6 days, respectively. Healthy PBMCs were incubated with Human T-activator CD3/CD28 beads at 1:4 ratio (Thermo Fisher Scientific) and IL-2 (Novartis) at 100 IU/mL. Healthy donor NK cells were incubated with 1000 IU/mL IL-2 only. 2×10^5 PBMCs and 5×10^4 NK cells were counted for treatment with ADO (Sigma-Aldrich) and 12 μM of A2BAR antagonist at the same day.
Figure 3 Rescue of lymphocyte proliferation by of A2BAR antagonism. Relative proliferation of: (A) CD45RA- CD4 T cells, (B) CD45RA+ CD4 T cells, (C) CD45RA- CD8 T cells, (D) CD45RA+ CD8 T cells, and (E) NK cells, after incubation with exogenous adenosine 0.1 mM and A2BAR antagonist 12 µM for 3 (A–D) and 6 (E) days. (n=10 healthy donors) CD45RA expression differentiates naïve and effector T cells from central and effector memory T cells. Box plots with minimum, first quartile, median, third quartile, and maximum are presented. Unpaired and non-parametric statistical analysis—Mann-Whitney test was performed against untreated control with *p<0.05, **p<0.01, ***p<0.001, and ****p<0.0001. (F–J) Representative CFSE histogram on the corresponding lymphocyte subset. CFSE, carboxyfluorescein succinimidyl ester.

In assay [2] the test system is autologous TILs and patient-derived sarcoma spheroids. Briefly: Spheroid infiltration by autologous TILs (real-time imaging and flow cytometry). The assay is classed as cell-based, human. The following applies: antagonist 12 µM, 3 days, n=8 donors, not statistically significant. As for the experimental part: Spheroids were prepared using patient-derived sarcoma cell lines. 1×10^4 cells were seeded per well in 96-well ultra-low attachment plate with DMEM-F12 media containing 20% FBS and 1% PS for 5 days. 3×10^4 CSFE-labeled autologous expanded TILs, at Effector:target ratio of 3:1, were added to the spheroid at day five with A2BAR antagonism treatment at 12 µM. After 3 days, spheroid was removed and split into two groups—IN and OUT. […] Spheroids were washed with PBS at least two times. GentleMACS tumor dissociation kit (Miltenyi Biotec) was used to digest the spheroids for FC analysis.
Brightfield and phase contrast images under 4X objective were acquired every 6 hours on IncuCyte S3 system (Essen BioScience). For breast cancer patient-derived spheroid culture, 1×10^4 cells per well were seeded with A2BAR antagonist at 12 µM treatment for 6 days real time imaging. For spheroid infiltration, after the addition of CSFE-labeled autologous expanded TILs and treatment with A2BAR antagonist at 12 µM, green fluorescence images were acquired for 3 days. All spheroid invasion analysis was performed using top hat segmentation with IncuCyte software.
Cell surface was stained with mouse monoclonal antihuman antibodies against CD3, CD4, CD8, CD45RA, CD56 and CD19 listed in online supplemental table 1. Cell surface antibodies and live/dead (L/D) marker were incubated with samples at 4°C for 20 min after washing two times with flow cytometry buffer containing 5% FBS in PBS. For spheroid infiltrated TIL phenotyping, digested IN and OUT spheroids were stained with cell surface marker and analyzed on NovoCyte (ACEA Bioscience) with the use of FlowJo software (Tree Star) by gating single cell based on forward and side scatters. A representative gating strategy for CD8 naïve T cells is shown in online supplemental figure 3A. Compensated flow cytometry standard (FCS) files with only live cells were concatenated for downstream tSNE analysis using the ‘cytofkit’ R package (https://github.com/JinmiaoChenLab/cytofkit).
Figure 6 Infiltration of TILs into autologous patient-derived sarcoma spheroids after A2BAR antagonist treatment. (A) Representative real-time imaging of spheroid TIL infiltration over 3 days under 4× objective. Green areas demarcate CFSE-labeled TILs infiltrated into the red boundary tumor spheroid. (B) Relative TIL infiltration into autologous spheroids (n=8 donors) measured by flow cytometer. Antagonist 12 µM was added with CSFE-labeled TILs after spheroid formation on day five. (C) Representative flow cytometry plot of CFSE positive TILs in CD73+ tumor spheroid. (D) tSNE analysis and (E) annotated pie chart of TILs within (IN) and outside of (OUT) the spheroids without treatment (n=8 donors, indicated within the pie chart). Wilcoxon Rank Sum test was performed to compare the various IN vs OUT adhesion markers. Expression of (F) CD3 T cells, (G) CD49a+ CD103+ among CD8 T cells and (H) CD69 MFI among CD4 T cells IN and OUT of the spheroids without treatment (n=8 donors). (I) Relative CD8/CD4 TIL ratio IN the spheroids. Differential expression of relative (J–L). CD49a+ CD103+ cells IN the spheroids (n=8 donors) of CD3, CD8, and CD4 TILs. Antagonist 12 µM was added for J–L. Outlier is presented as diamond shape and defined by Tukey’s rule, which is not included in statistical analysis. Box plots with minimum, first quartile, median, third quartile, and maximum are presented. Unpaired and non-parametric statistical analysis—Mann-Whitney test was performed against untreated control with *p<0.05, **p<0.01, ***p<0.001, and ****p<0.0001. CFSE, carboxyfluorescein succinimidyl ester; TIL, tumor infiltrating lymphocyte; tSNE, T-distributed stochastic neighboring embedding. TEXT PRINTED IN THE PICTURE: (C) ISAM-R56A: TILs 13.0 DOUBTS OF THE COPYIST ABOUT THIS PICTURE: Panel C, ISAM-R56A, TILs: the print is small, 13.0 could be 13.8 or 13.6 / Panel C also prints a gate label 'TILs 3.17' for the Untreated control. […]
Background: A flow cytometer gives signals particle by particle.

A further assay has as its target T1, hA2B (A2BAR) (Homo sapiens, UniProt P29275).
T1 construct: expressed in transfected cells; host or cells: HEK-293
T1 sequence (P29275 1-332): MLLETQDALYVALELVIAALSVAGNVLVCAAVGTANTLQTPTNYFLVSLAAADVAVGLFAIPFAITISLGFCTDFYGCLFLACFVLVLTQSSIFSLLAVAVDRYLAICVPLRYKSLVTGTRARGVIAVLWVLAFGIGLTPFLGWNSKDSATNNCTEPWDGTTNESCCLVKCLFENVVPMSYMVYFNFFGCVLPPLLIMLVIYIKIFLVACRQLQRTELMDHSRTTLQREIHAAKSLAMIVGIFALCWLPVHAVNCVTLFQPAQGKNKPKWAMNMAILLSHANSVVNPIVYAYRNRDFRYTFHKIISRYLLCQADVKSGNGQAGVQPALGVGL
Briefly: cAMP assay, NECA-stimulated, HEK-293 cells with transfected A2BAR. It counts as cell-based. The following applies: n=3, read-out: Kb hA2B (cAMP production). How it is done: Assays were performed in transfected A2BAR using a cyclic AMP (cAMP) enzyme immunoassay kit (Amersham Biosciences) following previously described protocols.[28 30] HEK-293 cells were seeded (10,000 cells/well) in 96-well culture plates and incubated at 37°C in an atmosphere with 5% CO2 in Eagle’s Medium Nutrient Mixture F-12 (EMEM F-12), containing 10% fetal calf serum (FCS) and 1% L-Glutamine. Cells were washed three times with 200 µL assay medium (EMEM-F12 and 25 mM HEPES pH=7.4) and pre-incubated with assay medium containing 30 µM rolipram and test compounds at 37°C for 15 min. Ten µM NECA was incubated for 15 min at 37°C (total incubation time 30 min). Reaction was stopped with lysis buffer supplied in the kit and the enzyme immunoassay was carried out for detection of intracellular cAMP at 450 nm in an Ultra Evolution detector (Tecan). The dose-response curve of NECA-elicited cAMP formation was used to determine the initial choice of A2BAR antagonist concentration (online supplemental figure 2).
On the technique in general: Changes in cAMP serve as a functional read-out for many G protein-coupled receptors.

Assay [3] has as its system CD4 and CD8 T cells (healthy donor PBMCs). The assay is described as follows: IFNy and perforin cytokine production assay, with CD69 expression (flow cytometry). The note with it: antagonist 12 µM, exogenous adenosine. It counts as cell-based, human. How it is done:
Similar experimental setup was performed as the extracellular ADO uptake assay. Cells were harvested after 2 days of CD3/CD28 bead stimulation before treatment with PMA/ionomycin (Sigma Aldrich) and golgi-inhibitors (BD biosciences). After 3 hours of subsequent incubation, intracellular staining was performed for IFNy and perforin (online supplemental table 1).
(§1) Figure 4 Rescue of lymphocyte proinflammatory cytokine production IFNy and perforin by A2BAR antagonism. (A,B) Inhibition of extracellular adenosine uptake via phosphorylated-AMP activated protein kinase (pAMPK) staining (n=7 healthy donors). Production of proinflammatory cytokines—(C,D) IFNy and (E) perforin in CD4 (n=5 healthy donors) and CD8 (n=6 healthy donors) T cells. Expression of CD69 adhesion molecule in (F). CD4 (n=7 healthy donors) and (G) CD8 (n=4 healthy donors) T cells. A2BAR antagonist 12 µM was added. Outlier is presented as diamond shape and defined by Tukey’s rule, which is not included in statistical analysis. Box plots with minimum, first quartile, median, third quartile, and maximum are presented. Normalized fold change is based on percent values compared with untreated controls. Unpaired and non-parametric statistical analysis—Mann-Whitney test was performed against untreated control with *p<0.05, **p<0.01, ***p<0.001, and ****p<0.0001.

The test system of assay [4] is healthy donor T cells in MPNST patient-derived sarcoma spheroid. Briefly: Proliferation assay with CD73-expressing patient-derived sarcoma (MPNST) spheroid. The assay is classed as cell-based, human. The following applies: antagonist 12 µM, 3 days, endogenous adenosine, n=5 healthy donors. How it is done:
A malignant peripheral nerve sheath tumor (MPNST) patient-derived sarcoma cell line was used to grow spheroid by seeding 1×10^4 cells per well in a 96-well ultra-low attachment plate (Thermo Fisher Scientific) with DMEM-F12 media containing 20% FBS and 1% PS for 5 days. 1×10^5 CSFE-labeled healthy PBMCs, ratio of 10:1, were added to the CD73 expressing, adenosine-producing spheroid at day five. Similar to the proliferation assay with exogenous ADO, CD3/CD28 beads at 1:4 ratio and IL-2 at 100 IU/mL were added. A2BAR antagonism treatment at 12 μM was added at the same day.
Figure 5 Rescue of lymphocyte proliferation in sarcoma spheroids by A2BAR antagonism. Relative proliferation of: (A) CD45RA- CD4 T cells, (B) CD45RA+CD4 T cells, (C) CD45RA- CD8 T cells and (D) CD45RA+ CD8 T cells after antagonist 12 µM treatment for 3 days in MPNST patient-derived sarcoma spheroid. (n=5 healthy donors) Box plots with minimum, first quartile, median, third quartile, and maximum are presented. Unpaired and non-parametric statistical analysis—Mann-Whitney test was performed against untreated control with *p<0.05, **p<0.01, ***p<0.001, and ****p<0.0001. (E) Representative CSFE dilution of CD45RA+ CD8 T cells. CD45RA expression differentiates naïve and effector T cells from central and effector memory T cells. MPNST, malignant peripheral nerve sheath tumors; UPS, undifferentiated pleomorphic sarcoma.

The subject of assay [5] is pAMPK in CD4 and CD8 T cells. Briefly: Extracellular ADO uptake assay via pAMPK staining. The assay is classed as cell-based, human. The following applies: antagonist 12 µM, 50 µM exogenous adenosine, n=7 healthy donors. As for the experimental part:
Experimental setup was adopted from a previous study whereby AR antagonist was added to pretreat cells before exogenous adenosine treatment for intracellular and cytokine staining.[37] In brief, PBMCs were treated with 12 µM of A2BAR antagonists for 90 min before the addition of 50 µM of adenosine for 2 hours. Cells were harvested after 3 hours of CD3/CD28 bead stimulation before intracellular staining with phosphor-AMPK (Thr183, Thr172) rabbit primary antibody (Thermo Fisher Scientific) and antirabbit secondary antibody (BD biosciences).
as §1

Take `Cc1cc(-c2nnc(N)nc2-c2ccc(F)cc2)cc(Cl)n1` [AZD-4635, reference compound]: the “Rescue of lymphocyte (T and NK cell) proliferation” value (from here on “Rescue of lymphocyte”) in assay [1] is given as “did not restore the proliferation”. In assay [2], the “Median increased TIL infiltration vs untreated” value was 20%.
With `CC1=C(C(=O)OC(C)C)C(c2ccco2)NC(=S)N1` (stereo not shown) [SY1AF-30], the Kb on hA2B (A2BAR) amounted to 0.00472 µM. The “Rescue of lymphocyte” value in assay [1] was “None of the other A2BAR antagonists (SY1AF–30, SY1AF–80 and SY1KO–24) had any measurable impact”. Further, in assay [3], the “IFNy production by T cells on adenosine suppression (subset not given)” value is “significantly improved” and the “Perforin production by CD8 T cells on adenosine suppression” value is on record as “significantly improved”. In addition, the “Rescue of naïve and effector (CD45RA+) CD8 T cell proliferation in adenosine-producing sarcoma spheroids” value in assay [4] is listed as “significantly rescued”.
As for `CCOC(=O)C1=C(C)NC(=O)NC1c1ccsc1` (stereo not shown) [SY1AF-80], the Kb at hA2B (A2BAR) was 0.0252 µM. The “Rescue of lymphocyte” value in assay [1] is “None of the other A2BAR antagonists (SY1AF–30, SY1AF–80 and SY1KO–24) had any measurable impact”. In addition, in assay [5], the “pAMPK (extracellular ADO uptake) in CD4 T cells” value is reported as “significantly inhibited ADO uptake”. Besides, the “Rescue of naïve and effector (CD45RA+) CD8 T cell proliferation in adenosine-producing sarcoma spheroids” value in assay [4] is on record as “significantly rescued”.
With `CC1=C(C(=O)OC(C)C)C(c2ccco2)NC(=NC#N)N1` (stereo not shown) [SY1KO-24], the Kb on hA2B (A2BAR) turned out to be 0.116 µM. The “Rescue of lymphocyte” value in assay [1] is “None of the other A2BAR antagonists (SY1AF–30, SY1AF–80 and SY1KO–24) had any measurable impact”.
